Test results reported in BindingDB's records for doi:10.1016/S0960-894X(97)00285-0 (1997).
Counter-ions that a name gives are not always drawn.

Biological target: Prostate-specific antigen (Homo sapiens) (UniProt P07288)
Assay: Concentration required for inhibition of 50% of the cleavage of para-nitroanilide from MeO-Suc-Arg-Pro-Tyr-pNA.HCl by Prostate specific antigen PSA

Chain of Prostate-specific antigen (Homo sapiens) (P07288 whole entry, looked up): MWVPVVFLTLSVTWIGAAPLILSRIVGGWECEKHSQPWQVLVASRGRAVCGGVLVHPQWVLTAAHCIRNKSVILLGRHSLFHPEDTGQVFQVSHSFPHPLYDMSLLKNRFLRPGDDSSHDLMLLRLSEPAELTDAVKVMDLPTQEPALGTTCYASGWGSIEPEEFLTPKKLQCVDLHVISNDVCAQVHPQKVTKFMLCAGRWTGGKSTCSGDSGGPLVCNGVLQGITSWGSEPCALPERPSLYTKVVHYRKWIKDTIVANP

Row | SMILES | IC50 [nM]
1 | O=C(O)c1ccc(COC(=O)[C@@H]2[C@H](Cc3ccccc3)C(=O)N2C(=O)Cc2cccc(C(=O)O)c2)cc1 [3-Benzyl-1-[2-(3-carboxy-phenyl)-acetyl]-4-oxo-azetidine-2-carboxylic acid 4-carboxy-benzyl ester] | > 30000
2 | NCc1ccc(COC(=O)[C@@H]2[C@H](Cc3ccccc3)C(=O)N2C(=O)Cc2cccc(C(=O)O)c2)cc1 [(2S,3S)-3-Benzyl-1-[2-(3-carboxy-phenyl)-acetyl]-4-oxo-azetidine-2-carboxylic acid 4-aminomethyl-benzyl ester; TFA] | 1340
